# Results: patent US5190741A, “Agents for diagnosing and treating melanomas, aromatic halogenated derivatives usable as such agents and their preparation” (Institut National de la Sante et de la Recherche Medicale …, priority 1989, dated 1993)
# Like-named read-outs stand apart in the source and are kept apart here.
# Tests used:
# [1] = test system: 6 weeks old OF 1 male mice; experiment: LD50 determination, i.v. (Karber and Behrens); conditions: mouse, in vivo, iv
# From the text: (§1) The determination of the LD50 is made in the mouse after i.v. injection of the molecules according to the methodology described by Karber and Behrens.
# (§2) 6 weeks old OF 1 male mice
# [2] = LD50 determination, i.v. (Karber and Behrens); conditions: mouse, in vivo, iv
# From the text: as §1, §2
# [3] = test system: Beu melanic human melanoma; experiment: Autoradiograms, nu/nu SSCUP nude mice bearing Beu; assay type: in vivo
# Experimental: The autoradiograms are carried out in mice bearing grafted melanomas:
# b. nu/nu SSCUP nudes bearing heterotransplants of melanic (Beu) or amelanic (Dau) human melanomas).
# The animals bearing grafted tumors receive the labelled compounds in the form of the hydrochloride in saline solution (3.7 to 5×10^5 Bq/animal) in a caudal vein. At different time intervals after the administration of the compounds (from 15 minutes to 24 hours) the mice are anesthetized with ether and plunged into liquid nitrogen.
# 30 μm sections, parallel to a sagittal plane, are prepared in a freezing microtome (TS 260, SLEE) according to the protocol described by Ullberg.
# B16 melanoma = experiment: Scintillation imaging, C57 BL6 mice bearing B16; assay type: in vivo, mouse; conditions: ^123 I label
# From the text: (§3) The mice bearing grafted tumors are anesthetized by the i.p. injection of sodium pentobarbital 1/5 and immobilized under a scintillation camera (Gammatome II, CGR) equipped with a pinhole 3-360 collimator, sensitivity 3.2 10^-4.
# C57 BL6 bearing B16 melanomas at different stages of development.
# (§4) The scanning observations have also been carried out after the injection of B into the following mice:
# C57 BL6 bearing the B16 melanoma
# [4] = Tissue distribution in C57 BL6 mice bearing B16; assay type: in vivo, mouse; conditions: mouse, iv, 3 umol/animal
# Experimental: (§5) The study of the tissue distribution of the ^125 I labelled compounds was performed in mice bearing grafted melanomas (cf. autoradiograms above). […] The animals are sacrificed at different time intervals of 1 to 24 hours after the injection. The blood is collected and the principal organs are excised. Aliquots are weighed and the radioactivity of the samples is measured in a […] 1191 counter (analytic tracer). The counting yield for iodine 125 is 60%. The results are expressed: as a percentage of the injected dose bound per g of tissue (% ID/g); in the form of the ratios [formula] This ratio reflects more precisely the selectivity of a molecule for an organ (tables 2, 4, 6, 8, 10 and 12).
# B16 murine melanoma = experiment: Tissue distribution in C57 BL6 mice bearing B16; assay type: in vivo, mouse; conditions: mouse, in vivo
# Experimental: as §5
# [5] = test system: Beu melanic human melanoma; experiment: Scintillation imaging, nu/nu SSCUP nude mice bearing Beu; assay type: in vivo; conditions: ^123 I label
# From the text: as §3
# nu/nu SSCUP nudes bearing human melanomas Beu and Dau.
# as §4
# nu/nu SSCUP nudes bearing the Beu heterotransplant.
# [6] = intestine, read-out: intestine % ID/g
# [7] = kidney, read-out: kidney % ID/g
# [8] = muscle, read-out: muscle % ID/g
# [9] = pancreas, read-out: pancreas % ID/g
# [10] = plasma, read-out: plasma % ID/g
# [11] = spleen, read-out: spleen % ID/g
# [12] = stomach, read-out: stomach % ID/g
# [13] = submaxillary glands, read-out: submaxillary glands % ID/g
smiles,measurement,setting,value
"CCN(CC)CCNC(=O)c1ccc(I)cc1 [Derivative A, N-(2-diethylaminoethyl) 4-iodo benzamide]",LD 0,[1],75 mg/kg
same,LD 100,[1],150 mg/kg
same,LD50,[2],125 mg/kg
same,darkening of the film at the tumor,[3]; 1 to 4 h after i.v.,Identical images
same,tumor visibility on autoradiogram,[3]; 24 h after i.v.,we can no longer see darkening of the film
same,images compared with ^125 I-A,B16 melanoma,identical images
same,tissue uptake at 1 h,"[4]; blood, read-out: blood % ID/g",1.04 %ID/g
same,tissue uptake at 2 h,"[4]; blood, read-out: blood % ID/g",0.74 %ID/g
same,tissue uptake at 4 h,"[4]; blood, read-out: blood % ID/g",0.54 %ID/g
same,tissue uptake at 6 h,"[4]; blood, 6 h, read-out: blood % ID/g",0.21 %ID/g
same,tissue uptake at 24 h,"[4]; blood, read-out: blood % ID/g",0.022 %ID/g
same,tissue uptake at 8 h,"[4]; blood, 8 h, read-out: blood % ID/g",0.34 %ID/g
same,tissue uptake at 12 h,"[4]; blood, read-out: blood % ID/g",0.09 %ID/g
same,tissue uptake at 1 h,"[4]; brain, read-out: brain % ID/g",2.67 %ID/g
same,tissue uptake at 2 h,"[4]; brain, read-out: brain % ID/g",1.4 %ID/g
same,tissue uptake at 4 h,"[4]; brain, read-out: brain % ID/g",0.7 %ID/g
same,tissue uptake at 6 h,"[4]; brain, 6 h, read-out: brain % ID/g",0.32 %ID/g
same,tissue uptake at 24 h,"[4]; brain, read-out: brain % ID/g",0.005 %ID/g
same,tissue uptake at 8 h,"[4]; brain, 8 h, read-out: brain % ID/g",0.18 %ID/g
same,tissue uptake at 12 h,"[4]; brain, read-out: brain % ID/g",0.04 %ID/g
same,tissue uptake at 1 h,"[4]; eye, read-out: eye % ID/g",13.6 %ID/g
same,tissue uptake at 2 h,"[4]; eye, read-out: eye % ID/g",13 %ID/g
same,tissue uptake at 4 h,"[4]; eye, read-out: eye % ID/g",12.4 %ID/g
same,tissue uptake at 6 h,"[4]; eye, 6 h, read-out: eye % ID/g",12.1 %ID/g
same,tissue uptake at 24 h,"[4]; eye, read-out: eye % ID/g",6.65 %ID/g
same,tissue uptake at 8 h,"[4]; eye, 8 h, read-out: eye % ID/g",8.07 %ID/g
same,tissue uptake at 12 h,"[4]; eye, read-out: eye % ID/g",8.49 %ID/g
same,tissue uptake at 1 h,[4]; [6],5.22 %ID/g
same,tissue uptake at 2 h,[4]; [6],3.94 %ID/g
same,tissue uptake at 4 h,[4]; [6],2.8 %ID/g
same,tissue uptake at 6 h,"[4]; intestine, 6 h, read-out: intestine % ID/g",0.75 %ID/g
same,tissue uptake at 8 h,"[4]; intestine, 8 h, read-out: intestine % ID/g",0.71 %ID/g
same,tissue uptake at 12 h,[4]; [6],0.14 %ID/g
same,tissue uptake at 24 h,[4]; [6],0.02 %ID/g
same,tissue uptake at 1 h,[4]; [7],8.56 %ID/g
same,tissue uptake at 2 h,[4]; [7],5.93 %ID/g
same,tissue uptake at 4 h,[4]; [7],3.67 %ID/g
same,tissue uptake at 6 h,"[4]; kidney, 6 h, read-out: kidney % ID/g",1.1 %ID/g
same,tissue uptake at 24 h,[4]; [7],0.07 %ID/g
same,tissue uptake at 8 h,"[4]; kidney, 8 h, read-out: kidney % ID/g",0.84 %ID/g
same,tissue uptake at 12 h,[4]; [7],0.19 %ID/g
same,tissue uptake at 1 h,"[4]; liver, read-out: liver % ID/g",6.04 %ID/g
same,tissue uptake at 2 h,"[4]; liver, read-out: liver % ID/g",4.02 %ID/g
same,tissue uptake at 4 h,"[4]; liver, read-out: liver % ID/g",2.46 %ID/g
same,tissue uptake at 6 h,"[4]; liver, 6 h, read-out: liver % ID/g",0.95 %ID/g
same,tissue uptake at 24 h,"[4]; liver, read-out: liver % ID/g",0.16 %ID/g
same,tissue uptake at 8 h,"[4]; liver, 8 h, read-out: liver % ID/g",0.8 %ID/g
same,tissue uptake at 12 h,"[4]; liver, read-out: liver % ID/g",0.25 %ID/g
same,tissue uptake at 1 h,"[4]; lung, read-out: lungs % ID/g",11 %ID/g
same,tissue uptake at 2 h,"[4]; lung, read-out: lungs % ID/g",6.12 %ID/g
same,tissue uptake at 4 h,"[4]; lung, read-out: lungs % ID/g",4.29 %ID/g
same,tissue uptake at 6 h,"[4]; lung, 6 h, read-out: lungs % ID/g",1.99 %ID/g
same,tissue uptake at 8 h,"[4]; lung, 8 h, read-out: lungs % ID/g",1.11 %ID/g
same,tissue uptake at 12 h,"[4]; lung, read-out: lungs % ID/g",0.2 %ID/g
same,tissue uptake at 24 h,"[4]; lung, read-out: lungs % ID/g",0.05 %ID/g
same,tissue uptake at 6 h,"[4]; lung, as from the 6th hour, mice bearing melanic melanomas, read-out: pulmonary binding",< 1 %ID/g
same,tissue uptake at 1 h,[4]; [8],1.55 %ID/g
same,tissue uptake at 2 h,[4]; [8],1.13 %ID/g
same,tissue uptake at 4 h,[4]; [8],0.66 %ID/g
same,tissue uptake at 6 h,"[4]; muscle, 6 h, read-out: muscle % ID/g",0.19 %ID/g
same,tissue uptake at 24 h,[4]; [8],0.009 %ID/g
same,tissue uptake at 8 h,"[4]; muscle, 8 h, read-out: muscle % ID/g",0.14 %ID/g
same,tissue uptake at 12 h,[4]; [8],0.03 %ID/g
same,tissue uptake at 1 h,[4]; [9],5.34 %ID/g
same,tissue uptake at 2 h,[4]; [9],3.42 %ID/g
same,tissue uptake at 4 h,[4]; [9],2.01 %ID/g
same,tissue uptake at 6 h,"[4]; pancreas, 6 h, read-out: pancreas % ID/g",0.55 %ID/g
same,tissue uptake at 8 h,"[4]; pancreas, 8 h, read-out: pancreas % ID/g",0.41 %ID/g
same,tissue uptake at 12 h,[4]; [9],0.13 %ID/g
same,tissue uptake at 24 h,[4]; [9],0.04 %ID/g
same,tissue uptake at 1 h,[4]; [10],0.82 %ID/g
same,tissue uptake at 2 h,[4]; [10],0.55 %ID/g
same,tissue uptake at 4 h,[4]; [10],0.45 %ID/g
same,tissue uptake at 6 h,"[4]; plasma, 6 h, read-out: plasma % ID/g",0.21 %ID/g
same,tissue uptake at 24 h,[4]; [10],0.024 %ID/g
same,tissue uptake at 8 h,"[4]; plasma, 8 h, read-out: plasma % ID/g",0.38 %ID/g
same,tissue uptake at 12 h,[4]; [10],0.11 %ID/g
same,tissue uptake at 1 h,[4]; [11],5.91 %ID/g
same,tissue uptake at 2 h,[4]; [11],2.94 %ID/g
same,tissue uptake at 4 h,[4]; [11],1.36 %ID/g
same,tissue uptake at 6 h,"[4]; spleen, 6 h, read-out: spleen % ID/g",0.56 %ID/g
same,tissue uptake at 8 h,"[4]; spleen, 8 h, read-out: spleen % ID/g",0.46 %ID/g
same,tissue uptake at 12 h,[4]; [11],0.16 %ID/g
same,tissue uptake at 24 h,[4]; [11],0.02 %ID/g
same,tissue uptake at 1 h,[4]; [12],6.03 %ID/g
same,tissue uptake at 2 h,[4]; [12],3.87 %ID/g
same,tissue uptake at 4 h,[4]; [12],2.35 %ID/g
same,tissue uptake at 6 h,"[4]; stomach, 6 h, read-out: stomach % ID/g",1.14 %ID/g
same,tissue uptake at 8 h,"[4]; stomach, 8 h, read-out: stomach % ID/g",1.65 %ID/g
same,tissue uptake at 12 h,[4]; [12],0.19 %ID/g
same,tissue uptake at 24 h,[4]; [12],0.07 %ID/g
same,tissue uptake at 1 h,[4]; [13],6.06 %ID/g
same,tissue uptake at 2 h,[4]; [13],3.6 %ID/g
same,tissue uptake at 4 h,[4]; [13],3.68 %ID/g
same,tissue uptake at 6 h,"[4]; submaxillary glands, 6 h, read-out: submaxillary glands % ID/g",1.12 %ID/g
same,tissue uptake at 8 h,"[4]; submaxillary glands, 8 h, read-out: submaxillary glands % ID/g",0.98 %ID/g
same,tissue uptake at 12 h,[4]; [13],0.44 %ID/g
same,tissue uptake at 24 h,[4]; [13],0.09 %ID/g
same,tissue uptake at 1 h,"[4]; tumor, read-out: tumor % ID/g",6.75 %ID/g
same,tissue uptake at 2 h,"[4]; tumor, read-out: tumor % ID/g",6.04 %ID/g
same,tissue uptake at 4 h,"[4]; tumor, read-out: tumor % ID/g",4.82 %ID/g
same,tissue uptake at 6 h,"[4]; tumor, 6 h, read-out: tumor % ID/g",3.53 %ID/g
same,tissue uptake at 24 h,"[4]; tumor, read-out: tumor % ID/g",0.79 %ID/g
same,tissue uptake at 8 h,"[4]; tumor, up to 8 hours, B16, read-out: intratumoral concentration",> 1 %ID/g
same,tissue uptake at 8 h,"[4]; tumor, 8 h, read-out: tumor % ID/g",3.42 %ID/g
same,tissue uptake at 12 h,"[4]; tumor, read-out: tumor % ID/g",1.01 %ID/g
same,marker of the B16 murine melanoma,B16 murine melanoma,markers of the B16 murine melanoma
same,images compared with ^125 I-A,[5],identical images
